Assay results as given in ChEMBL document CHEMBL1201862, “PubChem BioAssay data set” (2004).
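Each compound was tested at five concentrations against cells in 96-well plates for 48 hours. GI50 marks 50% less growth.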 Calls of active or inactive are those of the source. Cut-off read from the data, not from the text of the source: active = GI50 up to about 1.1 µM and inactive = higher.

How the values were obtained:
Assay in all cases: inhibition of tumour cell growth, NCI panel, 48 h
OVCAR-8 = system: OVCAR-8
Malme-3M = system: Malme-3M
SF-295 = system: SF-295
HL-60 = system: HL-60
M14 = system: M14
OVCAR-5 = system: OVCAR-5
T47D = system: T47D
RPMI-8226 = system: RPMI-8226
A549 = system: A549
ACHN = system: ACHN
SNB-75 = system: SNB-75
OVCAR-3 = system: OVCAR-3
CCRF-CEM = system: CCRF-CEM
786-0 = system: 786-0
SF-539 = system: SF-539
MCF7 = system: MCF7
IGROV-1 = system: IGROV-1
UO-31 = system: UO-31
HT-29 = system: HT-29
NCI-H23 = system: NCI-H23
MDA-MB-435 = system: MDA-MB-435
SK-OV-3 = system: SK-OV-3
SF-268 = system: SF-268
HCT-15 = system: HCT-15
SW-620 = system: SW-620
HCC 2998 = system: HCC 2998
COLO 205 = system: COLO 205
MOLT-4 = system: MOLT-4
HOP-92 = system: HOP-92
A498 = system: A498
NCI-H522 = system: NCI-H522
NCI/ADR-RES = system: NCI/ADR-RES
K562 = system: K562
EKVX = system: EKVX
PC-3 = system: PC-3
SNB-19 = system: SNB-19
UACC-257 = system: UACC-257
LOX IMVI = system: LOX IMVI
TK-10 = system: TK-10
CAKI-1 = system: CAKI-1
HCT-116 = system: HCT-116
NCI-H226 = system: NCI-H226
SK-MEL-5 = system: SK-MEL-5
DU-145 = system: DU-145
NCI-H460 = system: NCI-H460
Hs-578T = system: Hs-578T
MDA-MB-231 = system: MDA-MB-231
OVCAR-4 = system: OVCAR-4
SR = system: SR
U-251 = system: U-251
MDA-N = system: MDA-N
UACC-62 = system: UACC-62
RXF 393 = system: RXF 393
SK-MEL-28 = system: SK-MEL-28
SN12C = system: SN12C
KM12 = system: KM12
BT-549 = system: BT-549
HOP-62 = system: HOP-62
SK-MEL-2 = system: SK-MEL-2

Measured: GI50

COc1ccc(/C(=N/O)c2ccccc2-c2nc3ccccc3c(=O)n2-c2ccc(S(=O)(=O)Nc3ncccn3)cc2)cc1C
14 µM: HCT-15
inactive: OVCAR-8 18.4 µM | Malme-3M > 10 µM | SF-295 12.9 µM | HL-60 11.8 µM | M14 17.1 µM | OVCAR-5 24.5 µM | T47D 12.6 µM | RPMI-8226 14.6 µM | A549 17.4 µM | ACHN 14.4 µM | SNB-75 14.2 µM | OVCAR-3 15.8 µM | CCRF-CEM 13.6 µM | 786-0 > 10 µM | SF-539 13.2 µM | MCF7 13.2 µM | IGROV-1 17.8 µM | UO-31 19.6 µM | HT-29 > 10 µM | NCI-H23 12 µM | MDA-MB-435 14.9 µM | SK-OV-3 6.81 µM | SF-268 16.7 µM | SW-620 18 µM | HCC 2998 10.2 µM | COLO 205 18.9 µM | MOLT-4 12.2 µM | HOP-92 8.73 µM | A498 20.4 µM | NCI-H522 14.2 µM | NCI/ADR-RES 11.6 µM | K562 12.2 µM | EKVX 16.5 µM | PC-3 19.7 µM | SNB-19 20.8 µM | UACC-257 17.1 µM | LOX IMVI > 10 µM | TK-10 21.8 µM | CAKI-1 21.1 µM | HCT-116 12.7 µM | NCI-H226 > 10 µM | SK-MEL-5 12.8 µM | DU-145 21.1 µM | NCI-H460 15.6 µM | Hs-578T 29.4 µM | MDA-MB-231 18.4 µM | OVCAR-4 17.9 µM | SR 15.3 µM | U-251 11.8 µM | MDA-N 18.3 µM | UACC-62 12.1 µM | RXF 393 11.1 µM | SK-MEL-28 14.9 µM | SN12C > 30.2 µM | KM12 18.1 µM | BT-549 17.6 µM | HOP-62 16.1 µM

COc1cc(-c2oc3ccccc3c(=O)c2O)cc(OC)c1OC
inactive: OVCAR-8 9.66 µM | Malme-3M > 94.6 µM | SF-295 35.7 µM | HL-60 7.08 µM | M14 14 µM | OVCAR-5 > 100 µM | T47D 6 µM | RPMI-8226 3.43 µM | A549 9.02 µM | ACHN 6.9 µM | SNB-75 6.82 µM | OVCAR-3 4.28 µM | CCRF-CEM 3.32 µM | 786-0 9.75 µM | SF-539 26.3 µM | MCF7 > 100 µM | IGROV-1 6.9 µM | UO-31 4.63 µM | HT-29 > 74.8 µM | NCI-H23 61 µM | MDA-MB-435 > 100 µM | SK-OV-3 43.4 µM | SF-268 11.7 µM | SW-620 > 80.2 µM | HCC 2998 > 100 µM | COLO 205 73.3 µM | MOLT-4 4.72 µM | HOP-92 4.06 µM | A498 22 µM | NCI-H522 11.4 µM | NCI/ADR-RES 4.32 µM | K562 6.71 µM | EKVX 25.3 µM | PC-3 11.3 µM | SNB-19 > 58.9 µM | UACC-257 > 69.3 µM | LOX IMVI 6.24 µM | TK-10 29 µM | CAKI-1 26.2 µM | SK-MEL-2 > 100 µM | HCT-116 10.3 µM | SK-MEL-5 6.58 µM | DU-145 > 31.6 µM | NCI-H460 4.19 µM | Hs-578T 8.22 µM | MDA-MB-231 42.4 µM | OVCAR-4 7 µM | SR 3.03 µM | U-251 8.77 µM | MDA-N > 26.1 µM | UACC-62 6.5 µM | RXF 393 15.6 µM | SK-MEL-28 > 100 µM | SN12C > 100 µM | KM12 > 100 µM | BT-549 > 55.2 µM | HOP-62 6.04 µM
4.62 µM: HCT-15
